Measurements reported in article PMC12720774, “Detergents alter the stability and lipid binding properties of the CD1d immunoreceptor” (Protein Science : A Publication of the Protein Society, 2025).
“And” between values parts separate entries of the source, which are not always exact repeats. Identical values can stand only once.

Legend:
[1] = target: hCD1d (Homo sapiens, UniProt P15813+P61769); assay: Detergent competition with 18:1 LPC binding to hCD1d (ITF, MST, nanoDSF); design: TEV protease cleavage site ENLYFQS (C); BirA biotinylation site (C); His7 (C); made in house; host or cells: TurboCHO cells (GenScript); details: 0.05% detergent
Sequence of hCD1d (P61769+P15813 fused): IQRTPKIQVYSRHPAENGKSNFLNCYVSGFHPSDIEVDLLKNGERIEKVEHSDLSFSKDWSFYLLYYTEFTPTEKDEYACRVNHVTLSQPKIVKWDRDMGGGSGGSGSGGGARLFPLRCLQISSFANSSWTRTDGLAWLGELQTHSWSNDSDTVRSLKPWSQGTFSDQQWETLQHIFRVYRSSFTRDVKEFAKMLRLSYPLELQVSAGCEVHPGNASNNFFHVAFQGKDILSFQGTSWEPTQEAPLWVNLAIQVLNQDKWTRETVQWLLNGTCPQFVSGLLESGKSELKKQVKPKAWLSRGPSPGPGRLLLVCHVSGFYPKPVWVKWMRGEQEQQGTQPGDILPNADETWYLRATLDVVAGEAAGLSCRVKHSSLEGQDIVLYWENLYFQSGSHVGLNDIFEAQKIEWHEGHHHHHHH
Experimental: We selected 18:1 LPC for the competition experiments since, first, a structure with hCD1d has been well characterized, and second, it binds hCD1d with moderate micromolar affinity, which is representative of many endogenous lipid antigens (Cantu et al., [2003]; López‐Sagaseta et al., [2012]). In the absence of detergent, 18:1 LPC produced concentration‐dependent changes in ITF and MST signal and decreased the melting temperature of hCD1d (ΔT m = −8.1 ± 1.7°C), indicative of specific binding and hCD1d destabilization (Figure 7c–e).
ITF spectra were recorded from 300 to 500 nm using a Horiba FL3‐21 Fluorometer with the excitation wavelength of 285 nm and excitation/emission slits of 6.2 nm. Fluorescence spectra of 50 to 100 nM hCD1d were acquired in the absence and presence of detergents in 1X PBS pH 7.4 at 25°C. Prior to data acquisition, hCD1d and detergent or lipid samples were incubated at 37°C overnight (~12 h) to simulate in vitro and in vivo loading conditions. […] For 18:1 LPC experiments, fluorescence spectra of 100 nM hCD1d were acquired in the absence and presence of 18:1 LPC in 1X PBS pH 7.4 at 25°C. […] For all ITF experiments, the change in fluorescence signal (F − F 0/F 0) was determined at 335 nm. Three replicates were performed, and data are presented as the mean ± standard deviation (n = 3). K D values were fitted with non‐linear regression in GraphPad Prism v10.1. […]

[2] = target: T1, CSP 319‐328/HLA‐B*08:01/hβ2M complex (Homo sapiens, UniProt P01889, A93T/A95T/D138N/E176V/E187T/K202T/Q94N/R180D/S35A/V36M/Y33D/Y91F); assay: MST with peptide/HLA complex; assay type: binding; details: for Kd: 100 nM AF647‐labeled peptide/HLA, 25°C, read-out: K D (MST), peptide/HLA; for MST normalized fluorescence signal (Fnorm): replicates
T1 construct: made in house
Text: To determine whether detergent effects were specific to hCD1d, we performed analogous ITF, MST, and nanoDSF experiments with a peptide/HLA complex. HLA‐B*08:01, presenting the Plasmodium falciparum derived peptide […] ([…]), was selected as a representative model system since the peptide antigen contains hydrophilic solvent‐exposed residues in the antigen‐binding groove (Frooman et al., [2025]). Although structurally similar to that of hCD1d, HLA‐B*08:01 shares low sequence identity (Figure S10a). […] By nanoDSF, ODG caused minimal destabilization of either complex (ΔT m≈−0.2 to −0.8°C; Figure S10f). […] We posit that lipid‐specific unloading effects of detergent are due to either hydrophobic residues in the antigen binding groove (detergent‐CD1d interactions) and/or the hydrophobic nature of the lipid antigen (detergent‐lipid interactions).
For comparison with peptide/HLA molecules, we prepared recombinant CSP 319‐328/HLA‐B*08:01/hβ2M complex using in vitro refolding methods fully described previously (Frooman et al., [2025]). The peptide sequence for CSP 319–328 is […]. This peptide was chosen since it contains Lys, Gln, and Asp residues predicted to be solvent‐exposed in the HLA‐B*08:01 binding groove (Frooman et al., [2025]).
MST experiments with peptide/HLA molecules and detergents were performed using an analogous protocol.

With C[C@H](CCC(=O)NCCC[N+](C)(C)CCCS(=O)(=O)[O-])[C@H]1CC[C@H]2[C@@H]3[C@H](O)C[C@@H]4C[C@H](O)CC[C@]4(C)[C@H]3C[C@H](O)[C@]12C [CHAPS, 3‐((3‐cholamidopropyl) dimethylammonio)‐1‐propanesulfonate] the “effect of detergent on 18:1 LPC binding to hCD1d (in words)” value [1] was “did not robustly outcompete binding”.

For CCCCCCCCO[C@@H]1O[C@H](CO)[C@@H](O)[C@H](O)[C@H]1O [ODG, n‐octyl‐β‐D‐glucopyranoside], the Kd [2] was 3970 ± 290 µM, the “MST normalized fluorescence signal (Fnorm)” value ([2]; peptide/HLA with ODG, concentration 1.52588e-6 (unit not given)) was 823.198 and 827.76 and 828.811 and the “MST normalized fluorescence signal (Fnorm)” value ([2]; peptide/HLA with ODG, concentration 3.05176e-6 (unit not given)) was 822.943 and 827.867 and 830.525. For the same compound, the “MST normalized fluorescence signal (Fnorm)” value ([2]; peptide/HLA with ODG, concentration 6.10352e-6 (unit not given)) was 822.246 and 827.784 and 829.217, the “MST normalized fluorescence signal (Fnorm)” value ([2]; peptide/HLA with ODG, concentration 1.2207e-5 (unit not given)) was 822.018 and 826.127 and 829.204 and the “MST normalized fluorescence signal (Fnorm)” value ([2]; peptide/HLA with ODG, concentration 2.44141e-5 (unit not given)) was 822.327 and 826.016 and 829.378. The “MST normalized fluorescence signal (Fnorm)” value ([2]; peptide/HLA with ODG, concentration 4.88281e-5 (unit not given)) was 822.531 and 826.781 and 828.529, the “MST normalized fluorescence signal (Fnorm)” value ([2]; peptide/HLA with ODG, concentration 9.76563e-5 (unit not given)) was 821.832 and 827.649 and 828.743 and the “MST normalized fluorescence signal (Fnorm)” value ([2]; peptide/HLA with ODG, concentration 0.000195313 (unit not given)) was 821.404 and 825.833 and 828.951. For the same compound, the “MST normalized fluorescence signal (Fnorm)” value ([2]; peptide/HLA with ODG, concentration 0.000390625 (unit not given)) was 819.989 and 827.51 and 830.305, the “MST normalized fluorescence signal (Fnorm)” value ([2]; peptide/HLA with ODG, concentration 0.00078125 (unit not given)) was 822.464 and 828.227 and 831.061 and the “MST normalized fluorescence signal (Fnorm)” value ([2]; peptide/HLA with ODG, concentration 0.0015625 (unit not given)) was 823.907 and 829.452 and 833.281. The “MST normalized fluorescence signal (Fnorm)” value ([2]; peptide/HLA with ODG, concentration 0.003125 (unit not given)) was 828.308 and 833.352 and 835.76, the “MST normalized fluorescence signal (Fnorm)” value ([2]; peptide/HLA with ODG, concentration 0.00625 (unit not given)) was 834.384 and 840.244 and 840.854 and the “MST normalized fluorescence signal (Fnorm)” value ([2]; peptide/HLA with ODG, concentration 0.0125 (unit not given)) was 835.617 and 843.292 and 844.526. The “MST normalized fluorescence signal (Fnorm)” value ([2]; peptide/HLA with ODG, concentration 0.025 (unit not given)) was 837.125 and 844.883 and 846.326 and the “MST normalized fluorescence signal (Fnorm)” value ([2]; peptide/HLA with ODG, concentration 0.05 (unit not given)) was 838.274 and 844.594 and 846.629.

For Tween 20, the “effect of detergent on 18:1 LPC binding to hCD1d (in words)” value [1] was “abolished nearly all detectable binding signals”, the Kd [2] was 10.1 ± 2.8 µM and the “MST normalized fluorescence signal (Fnorm)” value ([2]; peptide/HLA with Tween 20, concentration 3.05176e-8 (unit not given)) was 826.857 and 829.996 and 831.035. For the same compound, the “MST normalized fluorescence signal (Fnorm)” value ([2]; peptide/HLA with Tween 20, concentration 6.10352e-8 (unit not given)) was 827.636 and 831.405 and 830.579, the “MST normalized fluorescence signal (Fnorm)” value ([2]; peptide/HLA with Tween 20, concentration 1.2207e-7 (unit not given)) was 825.955 and 829.58 and 832.602 and the “MST normalized fluorescence signal (Fnorm)” value ([2]; peptide/HLA with Tween 20, concentration 2.44141e-7 (unit not given)) was 826.8 and 829.861 and 831.726. The “MST normalized fluorescence signal (Fnorm)” value ([2]; peptide/HLA with Tween 20, concentration 4.88281e-7 (unit not given)) was 824.798 and 829.349 and 832.449, the “MST normalized fluorescence signal (Fnorm)” value ([2]; peptide/HLA with Tween 20, concentration 9.76563e-7 (unit not given)) was 827.728 and 832.261 and 832.695 and the “MST normalized fluorescence signal (Fnorm)” value ([2]; peptide/HLA with Tween 20, concentration 1.95313e-6 (unit not given)) was 829.662 and 834.525 and 833.392. The “MST normalized fluorescence signal (Fnorm)” value ([2]; peptide/HLA with Tween 20, concentration 3.90625e-6 (unit not given)) was 826.877 and 835.214 and 835.492, the “MST normalized fluorescence signal (Fnorm)” value ([2]; peptide/HLA with Tween 20, concentration 7.8125e-6 (unit not given)) was 836.072 and 833.005 and 835.4 and the “MST normalized fluorescence signal (Fnorm)” value ([2]; peptide/HLA with Tween 20, concentration 1.5625e-5 (unit not given)) was 830.346 and 831.213 and 835.161. For the same compound, the “MST normalized fluorescence signal (Fnorm)” value ([2]; peptide/HLA with Tween 20, concentration 3.125e-5 (unit not given)) was 838.975 and 840.638 and 846.826, the “MST normalized fluorescence signal (Fnorm)” value ([2]; peptide/HLA with Tween 20, concentration 6.25e-5 (unit not given)) was 839.005 and 846.034 and 849.234 and the “MST normalized fluorescence signal (Fnorm)” value ([2]; peptide/HLA with Tween 20, concentration 0.000125 (unit not given)) was 840.518 and 838.062 and 842.957. The “MST normalized fluorescence signal (Fnorm)” value ([2]; peptide/HLA with Tween 20, concentration 0.00025 (unit not given)) was 834.255 and 840.226 and 843.206, the “MST normalized fluorescence signal (Fnorm)” value ([2]; peptide/HLA with Tween 20, concentration 0.0005 (unit not given)) was 839.953 and 837.123 and 843.815 and the “MST normalized fluorescence signal (Fnorm)” value ([2]; peptide/HLA with Tween 20, concentration 0.001 (unit not given)) was 833.107 and 838.64 and 841.342.
